This note sets out measurements from paper PMC11339948 (Chemical Science, 2024).

One may read the IC50 as the concentration that inhibits the measured activity by half.

The target in this test is full-length TDP1 (Homo sapiens, UniProt Q9NUW8). Briefly: FRET-based TDP1 enzymatic activity inhibition assay. It is filed as biochemical.

Bridge positions count the residues as written; N and C are the ends. Square brackets hold non-standard residues; d marks the D form. Ends that are not written are not given here. pGlu = O=C1CC[C@@H](C(=O)O)N1

Chain of full-length TDP1 (Q9NUW8 whole entry): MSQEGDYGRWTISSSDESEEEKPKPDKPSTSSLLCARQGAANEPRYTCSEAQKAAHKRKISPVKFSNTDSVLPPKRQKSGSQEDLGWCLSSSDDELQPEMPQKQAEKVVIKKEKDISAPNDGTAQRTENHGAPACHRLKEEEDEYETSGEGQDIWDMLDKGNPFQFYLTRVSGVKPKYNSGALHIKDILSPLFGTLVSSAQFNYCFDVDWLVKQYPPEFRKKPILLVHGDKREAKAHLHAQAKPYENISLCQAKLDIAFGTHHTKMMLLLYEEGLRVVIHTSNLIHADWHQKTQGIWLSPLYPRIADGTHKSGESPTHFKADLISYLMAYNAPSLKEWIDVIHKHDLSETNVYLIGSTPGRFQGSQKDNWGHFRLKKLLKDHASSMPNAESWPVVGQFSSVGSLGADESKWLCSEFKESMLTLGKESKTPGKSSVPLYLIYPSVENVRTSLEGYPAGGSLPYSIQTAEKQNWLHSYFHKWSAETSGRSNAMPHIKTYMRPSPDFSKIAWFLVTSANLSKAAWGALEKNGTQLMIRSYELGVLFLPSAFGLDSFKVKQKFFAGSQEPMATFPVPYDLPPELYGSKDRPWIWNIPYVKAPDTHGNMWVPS

As for “[pGlu]EAFCYSDRFCQNYIGSIPDCCFGRGSYSFELQPPPWECYQC (disulfide 5-21, 11-39, 22-42) [Native recifin A, recifin A]”, it took 800 nM to reach half-maximal inhibition (IC50).
Under “[pGlu]EAFCYSDRFCQNYIGSIPDCCFGRGSYSFELQPPPWECYQC (disulfide 5-21, 11-39, 22-42) [Synthetic recifin A, recifin A]” stands 580 nM.
